Source: US20050234073A1, “Methods of inhibiting inflammation” (priority 2003, published 2005)

How the values were obtained:
[1] = target: T1, MTP (Mus musculus, UniProt O08601); assay: Triglyceride transfer assay in splenocyte lysates; type: biochemical; conditions: splenocyte lysate with inhibitor added
T1 construct: Splenocyte lysates contained measurable triglyceride transfer activity; endogenous in cells; host or cells: primary mouse splenocytes (crude lysate)
T1 sequence (O08601 22-894): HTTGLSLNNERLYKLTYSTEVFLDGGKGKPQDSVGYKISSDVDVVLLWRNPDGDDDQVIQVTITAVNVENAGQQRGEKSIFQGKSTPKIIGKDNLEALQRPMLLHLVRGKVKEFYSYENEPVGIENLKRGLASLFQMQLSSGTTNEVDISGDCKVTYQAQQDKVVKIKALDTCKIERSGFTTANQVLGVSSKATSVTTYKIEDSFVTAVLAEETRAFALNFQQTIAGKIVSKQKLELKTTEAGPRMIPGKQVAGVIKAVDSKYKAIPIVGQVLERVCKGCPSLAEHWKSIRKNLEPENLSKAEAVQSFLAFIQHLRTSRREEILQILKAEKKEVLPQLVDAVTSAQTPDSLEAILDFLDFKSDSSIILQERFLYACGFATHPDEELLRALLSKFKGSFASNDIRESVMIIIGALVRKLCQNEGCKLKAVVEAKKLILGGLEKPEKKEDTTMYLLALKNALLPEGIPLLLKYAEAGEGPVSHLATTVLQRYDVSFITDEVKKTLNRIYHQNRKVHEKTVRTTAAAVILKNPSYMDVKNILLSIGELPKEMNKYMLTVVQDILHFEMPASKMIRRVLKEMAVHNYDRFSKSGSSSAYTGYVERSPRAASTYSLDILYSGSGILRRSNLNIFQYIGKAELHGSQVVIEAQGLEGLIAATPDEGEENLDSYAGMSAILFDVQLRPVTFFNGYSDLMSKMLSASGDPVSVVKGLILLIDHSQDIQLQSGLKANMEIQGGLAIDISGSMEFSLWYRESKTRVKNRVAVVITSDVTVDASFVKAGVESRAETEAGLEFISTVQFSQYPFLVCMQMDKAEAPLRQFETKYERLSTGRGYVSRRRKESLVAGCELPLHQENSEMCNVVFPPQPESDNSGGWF
T1 sequence (P09103 20-509 partner): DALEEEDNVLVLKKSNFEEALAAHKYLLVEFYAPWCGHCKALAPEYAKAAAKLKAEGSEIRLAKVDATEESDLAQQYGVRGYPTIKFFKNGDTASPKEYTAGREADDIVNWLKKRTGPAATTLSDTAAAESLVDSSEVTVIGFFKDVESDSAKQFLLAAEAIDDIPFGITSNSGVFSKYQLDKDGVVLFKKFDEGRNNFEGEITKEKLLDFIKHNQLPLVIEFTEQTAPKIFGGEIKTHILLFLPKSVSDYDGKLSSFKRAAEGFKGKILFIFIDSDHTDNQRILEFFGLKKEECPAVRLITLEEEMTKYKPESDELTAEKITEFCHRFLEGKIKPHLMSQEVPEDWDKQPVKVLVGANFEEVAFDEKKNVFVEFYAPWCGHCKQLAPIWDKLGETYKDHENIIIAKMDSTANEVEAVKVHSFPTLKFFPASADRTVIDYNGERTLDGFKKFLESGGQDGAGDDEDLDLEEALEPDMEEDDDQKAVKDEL
Procedure: FIG. 15C is a line graph showing triglyceride transfer activity in 100 ug splenocyte lysate (Δ), 50 μg splenocyte lysate (◯), 100 μg splenocyte lysate with BMS197636 (▴), and 50 μg splenocyte lysate with BMS197636 (●). Assays were in triplicate with standard deviations less than 10% of percent transfer at 3 hours.
(§1) The triglyceride transfer activity of MTP was measured using donor phospholipids vesicles (Chylos Inc.) as described. PE transfer was done by overnight coating of a microtiter plate with 2 ug per well recombinant murine CD1d purified by baculovirus expression system. Wells were washed with PBS, incubated with PBS containing 0.5% isopropanol for 2 hours at 37° C., and washed again with PBS. […] Fluorescence was read with a fluorescence plate reader (7620 Microplate Fluorimeter; Cambridge Technology, Watertown, Mass.) using 460 nm excitation and 530 nm emission wavelengths.
In this assay, MTP function is assessed by studying the transfer of fluorescently labeled triglycerides embedded in donor phospholipid vesicles to acceptor vesicles. During the transfer, the amount of triglyceride associated with MTP can be measured as an increase in fluorescence over time. […]

[2] = system: C1Rd cells; assay: C1Rd cell CD1d-mediated activation of human peripheral blood derived iNKT cell line with PMA (IFN-gamma); type: cell-based; conditions: limiting concentration of PMA
Procedure: FIG. 20E is a line chart showing IFN-gamma production in C1Rd cells cultured with BMS197636 or vehicle and incubated with NKT cell lines derived from human peripheral blood in the presence of 1 ng/mL PMA.
APCs were incubated with 100 ng/mL α-galcer (kindly provided by Dr. H. Ploegh) for 3 hours, washed three times in PBS and aliquoted into a 96 well plate at 10^6 cells/mL. DN32 cells were added at 1:1 E:T ratio unless otherwise indicated. CD4^+ cells were isolated from spleens of OT-II transgenic mice using positive selection on CD4 magnetic beads (Miltenyi Biotec) and incubated with APCs and 100 μg/mL ovalbumin. The 24.8 NKT cell line was incubated with APCs in the absence of added antigen at E:T=2:1 unless otherwise indicated. Mouse IL-2 production was assessed by ELISA (OptEIA, BD PharMingen) of 24 or 40 hour culture supernatants. APCs were treated with BMS212122 (10 uM dissolved in DMSO; kindly provided by Bristol Myers Squibb, New Jersey) as indicated and washed prior to addition of T or NKT cells. […]
C1Rd is a human B cell line transfected with human CD1d. […] Incubation of C1Rd cells with BMS212122, but not the vehicle, inhibited the presentation of α-galcer as determined by a reduction in IL-2 secretion (FIG. 20D).

[3] = target: T2, recombinant murine CD1d (Mus musculus, UniProt P11609); assay: PE transfer assay from MTP to recombinant CD1d; type: biochemical; conditions: 0.5 μg purified MTP, PE:NBD vesicles, 2 hours 37 degrees
T2 construct: made in house; host or cells: baculovirus expression system (CD1d); rat liver (MTP)
T2 sequence (P11609 22-305 limits assumed): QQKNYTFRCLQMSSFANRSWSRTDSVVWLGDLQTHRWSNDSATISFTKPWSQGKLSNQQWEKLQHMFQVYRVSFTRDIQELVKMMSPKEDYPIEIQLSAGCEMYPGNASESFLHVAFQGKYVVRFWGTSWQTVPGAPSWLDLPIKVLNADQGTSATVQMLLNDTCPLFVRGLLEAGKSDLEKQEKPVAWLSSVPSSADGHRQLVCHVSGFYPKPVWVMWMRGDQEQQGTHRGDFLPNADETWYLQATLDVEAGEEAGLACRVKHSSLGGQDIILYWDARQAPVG
T2 sequence (P01887 21-119 partner): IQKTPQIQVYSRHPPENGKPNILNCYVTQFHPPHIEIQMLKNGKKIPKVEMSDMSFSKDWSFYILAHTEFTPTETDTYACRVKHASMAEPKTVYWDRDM
Procedure: FIG. 16A is a bar chart showing purified MTP transfers a lipid to recombinant CD1d in vitro. Two micrograms of BSA or recombinant CD1d were coated onto microtiter wells and incubated with either PE:NBD vesicles alone or PE:NBD vesicles plus 0.5 μg purified MTP. Results are representative of five independent experiments. *, p<0.005
as §1, with “system.” for “system. Wells were washed with PBS, incubated with PBS containing 0.5% isopropanol for 2 hours at 37° C., and washed again with PBS.”
Recombinant β2m associated CD1d was coated onto a 96 well plate and incubated with liposomes containing a 6:1 ratio of unlabeled PE:NBD-labeled PE. […] Lipids bound to CD1d were eluted with isopropanol, transferred to a black microtiter plate, and the level of fluorescence determined. […] Assuming equal efficiency of MTP-mediated transfer of labeled versus unlabeled PE to the CD1d pocket and that all CD1d molecules bound to the plastic in an orientation with the groove solvent accessible, we calculated that the maximum limit of NBD-labeled PE that could be transferred to CD1d was 4.7 picomoles in this assay. […]

Molecule | triglyceride transfer activity of splenocyte lysates [1] | CD1d-mediated activation of human peripheral blood derived iNKT cell line [2] | increase in fluorescence above background (PE transferred to CD1d) [3] [fold]
9-[4-[[[4′-(trifluoromethyl)[1,1′-biphenyl]-2-yl]carbonyl]amino]butyl-piperidin-4-yl]-N-(2,2,2-trifluoroethyl)-9H-fluorene-9-carboxamide [BMS197636] | abrogated | dose-dependent inhibition | 
MTP: microsomal triglyceride transfer protein purified from rat liver (>95% pure by SDS-PAGE) (protein) chain 1: HTTGLSLNNERLYKLTYSTEVFLDGGKGKPQDSVGYKISSDVDVVLLWRNPDGDDDQVIQVTITAVNVENAGQQRGEKSIFQGKSTPKIIGKDNLEALQRPMLLHLVRGKVKEFYSYENEPVGIENLKRGLASLFQMQLSSGTTNEVDISGDCKVTYQAQQDKVVKIKALDTCKIERSGFTTANQVLGVSSKATSVTTYKIEDSFVTAVLAEETRAFALNFQQTIAGKIVSKQKLELKTTEAGPRMIPGKQVAGVIKAVDSKYKAIPIVGQVLERVCKGCPSLAEHWKSIRKNLEPENLSKAEAVQSFLAFIQHLRTSRREEILQILKAEKKEVLPQLVDAVTSAQTPDSLEAILDFLDFKSDSSIILQERFLYACGFATHPDEELLRALLSKFKGSFASNDIRESVMIIIGALVRKLCQNEGCKLKAVVEAKKLILGGLEKPEKKEDTTMYLLALKNALLPEGIPLLLKYAEAGEGPVSHLATTVLQRYDVSFITDEVKKTLNRIYHQNRKVHEKTVRTTAAAVILKNPSYMDVKNILLSIGELPKEMNKYMLTVVQDILHFEMPASKMIRRVLKEMAVHNYDRFSKSGSSSAYTGYVERSPRAASTYSLDILYSGSGILRRSNLNIFQYIKGTELHGSQVVIEAQGLEGLIAATPDEGEENLDSYAGMSAILFDVQLRPVTFFNGYSDLMSKMLSASGDPVSVVKGLILLIDHSQDIQLQSGLKANMEIQGGLAIDISGSMEFSLWYRESKTRVKNRVAVVITSDVTVDASFVKAGLESRAETEAGLEFISTVQFSQYPFLVCMQMDKAEAPLRQFETKYERLSTGRGYVSRRRKESLVAGCELPLHQQNSEMCNVVFPPQPESDNSGGWF chain 2: DALEEEDNVLVLKKSNFEEALAAHKYLLVEFYAPWCGHCKALAPEYAKAAAKLKAEGSEIRLAKVDATEESDLAQQYGVRGYPTIKFFKNGDTASPKEYTAGREADDIVNWLKKRTGPAATTLSDTAAAESLVDSSEVTVIGFFKDVESDSAKQFLLAAEAIDDIPFGITSNSGVFSKYQLDKDGVVLFKKFDEGRNNFEGEITKEKLLDFIKHNQLPLVIEFTEQTAPKIFGGEIKTHILLFLPKSVSDYDGKLSSFKRAAEGFKGKILFIFIDSDHTDNQRILEFFGLKKEECPAVRLITLEEEMTKYKPESDELTAEKITEFCHRFLEGKIKPHLMSQEVPEDWDKQPVKVLVGANFEEVAFDEKKNVFVEFYAPWCGHCKQLAPIWDKLGETYKDHENIIIAKMDSTANEVEAVKVHSFPTLKFFPASADRTVIDYNGERTLDGFKKFLESGGQDGAGDDEDLDLEEALEPDMEEDDDQKAVKDEL |  |  | 5
